What was measured:
giant foxtail = assay: Test C pre-/postemergence herbicide test; type: in vivo, Setaria faberi; conditions: preemergence
How it was run: (§1)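 Pre/post spray; non-phytotoxic solvent + surfactant. Post-timing 1–4 leaves, 2–18 cm. Read-out: visual % control vs untreated, day 12–14, greenhouse.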

rice [1] = assay: Test C flooded paddy test; type: in vivo, Oryza sativa; conditions: for Plant response rating, Rice: 500 g ai/ha, visual rating after 12 to 14 days
How it was run: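 Postemergence sprays applied to plants 2 to 18 cm tall (1- to 4-leaf stage); paddy species grown to 2-leaf stage under flooding. After 12 to 14 days in greenhouse, visual rating versus untreated controls on 0–100 scale (0 no effect, 100 complete control).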

blackgrass = assay: Test B postemergence herbicide test; type: in vivo, Alopecurus myosuroides; conditions: postemergence, visual rating, scale 0 (no effect) to 100 (complete control)
How it was run: (§2)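 Greenhouse test; postemergence application to plants at 1–4 leaves (2–18 cm); paddy species at 2 leaves; evaluated visually vs controls at 13–15 days; scale 0–100 (100 = complete control).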

[2] = test system: common (oilseed) sunflower; assay: Test C pre-/postemergence herbicide test; type: in vivo, Helianthus annuus; conditions: preemergence
How it was run: as §1

cocklebur = assay: Test C pre-/postemergence herbicide test; type: in vivo, Xanthium strumarium; conditions: for Plant response rating, Cocklebur: preemergence; for Cocklebur plant response rating: Preemergence, 500 g ai/ha, scale 0 to 100, 0 no effect, 100 complete control
How it was run: as §1

ducksalad = assay: Test B flooded paddy test; type: in vivo, Heteranthera limosa; conditions: 1000 g ai/ha, visual rating, scale 0 to 100 (0 no effect, 100 complete control), 13 to 15 days
How it was run: as §2

large crabgrass = assay: Test A pre-/postemergence herbicide test; type: in vivo, Digitaria sanguinalis
How it was run: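 Greenhouse injury scoring (0–100, complete control = 100) at approximately ten days follows simultaneous pre- and postemergence application. Soil received a directed spray after seeding; seedlings of 2–10 cm at the one- to two-leaf stage were sprayed to runoff.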

common ragweed = assay: Test C pre-/postemergence herbicide test; type: in vivo, Ambrosia elatior; set-up: key to Plant response rating, Ragweed: 0 = no effect, 100 = complete control; conditions: preemergence
How it was run: as §1

rice [3] = assay: Test B pre-/postemergence herbicide test; type: in vivo, Oryza sativa; conditions: preemergence; for Rice plant response rating (0 to 100 scale): 125 g ai/ha; for Plant response rating, Rice: 500 g ai/ha
How it was run: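 Formulation: non-phytotoxic solvent mix with surfactant. Timing: preemergence on seed and postemergence on 2–18 cm plants, applied concurrently. Readout after 13–15 d greenhouse: visual 0–100 control rating against controls.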

johnsongrass = assay: Test C pre-/postemergence herbicide test; type: in vivo, Sorghum halepense; conditions: preemergence
How it was run: as §1

[4] = 125 g ai/ha, scale 0 (no effect) to 100 (complete control), visual, 12 to 14 days
[5] = 500 g ai/ha, scale 0 to 100 (0 no effect, 100 complete control), visual, 12 to 14 days
[6] = 62 g ai/ha, scale 0 to 100 (0 no effect, 100 complete control)
[7] = 125 g ai/ha, scale 0 to 100 (0 no effect, 100 complete control)
[8] = 250 g ai/ha, scale of 0 to 100, 0 is no effect, 100 is complete control
[9] = scale 0 to 100 (0 no effect, 100 complete control)
[10] = Postemergence, 500 g ai/ha, 0 to 100 scale, 0 no effect, 100 complete control
[11] = Postemergence, 2000 g ai/ha, 0 to 100 scale, 0 no effect, 100 complete control
[12] = Preemergence, 2000 g ai/ha, visual rating, 0 to 100 scale (0 no effect, 100 complete control)
[13] = preemergence, 500 g ai/ha, visual injury, 0 to 100 scale (0 no effect, 100 complete control)
[14] = 0 = no effect, 100 = complete control

Row | Structure (SMILES) | Plant response rating, Foxtail, Giant (giant foxtail; 62 g ai/ha, scale 0 to 100) | Plant response rating, Foxtail, Giant (giant foxtail; [4]) | Plant response rating, Foxtail, Giant (giant foxtail; 250 g ai/ha, scale 0-100) | Plant response rating, Foxtail, Giant (giant foxtail; [5]) | Rice plant response rating (rice [1]; [6]) | Rice plant response rating (rice [1]; [7]) | Rice plant response rating (rice [1]; [8]) | Plant response rating, Rice (rice [1]; [9]) | Blackgrass plant response rating (blackgrass; 125 g ai/ha) | Blackgrass plant response rating (blackgrass; 500 g ai/ha) | Plant response rating, Sunflower ([2]; 62 g ai/ha, scale 0 to 100) | Plant response rating, Sunflower ([2]; 250 g ai/ha, scale 0-100) | Plant response rating, Sunflower [2, 5] | Plant response rating, Cocklebur (cocklebur; 62 g ai/ha, scale 0 to 100) | Plant response rating, Cocklebur (cocklebur; [4]) | Plant response rating, Cocklebur (cocklebur; 250 g ai/ha, scale 0-100) | Cocklebur plant response rating (cocklebur) | Ducksalad plant response rating (ducksalad) | Crabgrass, Large plant response rating (large crabgrass; [10]) | Plant response rating, Crabgrass, Large (large crabgrass; [11]) | also measured
1 | CCNC(=O)c1cccc(NC(=O)c2sc(C(C)(C)C)nc2CC)c1 [Compound 210] | 0 | 10 | 10 | 60 | 35 | 55 | 75 | 75 | 10 | 30 | 0 | 0 | 0 | 0 | 0 | 0 | 5 | 80 | 40 | 65 | Plant response rating, Sunflower [2, 4]: 0; Crabgrass, Large plant response rating (large crabgrass; [12]): 100; Crabgrass, Large plant response rating (large crabgrass; [13]): 90; Plant response rating, Ragweed (common ragweed; 62 g ai/ha, scale 0 to 100): 0; Plant response rating, Ragweed (common ragweed; [4]): 0; Plant response rating, Ragweed (common ragweed; 250 g ai/ha, scale 0-100): 90; Plant response rating, Ragweed (common ragweed; [5]): 90; Rice plant response rating (0 to 100 scale) (rice [3]; [14]): 60; Plant response rating, Rice (rice [3]; visual rating 0-100, 0 no effect, 100 complete control): 80; Plant response rating, Johnsongrass (johnsongrass; 62 g ai/ha, scale 0 to 100): 5; Plant response rating, Johnsongrass (johnsongrass; [4]): 20; Plant response rating, Johnsongrass (johnsongrass; 250 g ai/ha, scale 0-100): 50; Plant response rating, Johnsongrass (johnsongrass; [5]): 70
2 | CCc1nn(C(C)(C)C)cc1C(=O)Nc1cc(C(=O)N(CC)CC)ccc1F [Compound 223] | 40 | 70 | 100 | 100 | 0 | 0 | 45 | 75 | 0 | 0 | 0 | 0 | 30 | 0 | 0 | 0 | 0 | 90 | 20 | 25 | Crabgrass, Large plant response rating (large crabgrass; [12]): 90; Crabgrass, Large plant response rating (large crabgrass; [13]): 90; Plant response rating, Ragweed (common ragweed; 250 g ai/ha, scale 0-100): 100; Plant response rating, Ragweed (common ragweed; [5]): 100; Rice plant response rating (0 to 100 scale) (rice [3]; [14]): 0; Plant response rating, Rice (rice [3]; visual rating, 0 = no effect, 100 = complete control): 30; Plant response rating, Johnsongrass (johnsongrass; 62 g ai/ha, scale 0 to 100): 80; Plant response rating, Johnsongrass (johnsongrass; [4]): 80
